Data from patent US6605619B1, “Nitroxides as protectors against oxidatives stress” (The United States of America as represented by the …, priority 1992, dated 2003).
“Also recorded” adds a separate entry of the source. Marks after values point to notes of the source that are not given here. Each block holds one molecule with its values, some of them ahead of it.

Legend:
[1] = test system: Chinese hamster V79 cells; test: Protection of cells exposed to HX/XO, clonogenic survival; type: cell-based; conditions: for cell survival / protection from HX/XO: 0.05 U/ml XO + 0.5 mM HX, 37° C., 5 mM nitroxide, 100 U/ml catalase, SOD, 500 μM DF preincubated 2 h
Method: (§1) Chinese hamster V79 cells were grown in F12 medium supplemented with 10% fetal calf serum, penicillin, and streptomycin. Survival was assessed in all studies by the clonogenic assay. The plating efficiency range between 80-90%. Stock cultures of exponentially growing cells were trypsinized, rinsed, and plated (5×10^5 cells/dish) into a number of 100 mm petri dishes and incubated 16 h at 37° C. prior to experimental protocols. Cells were exposed for 1 h at 37° C. to either 0.5 mM hypoxanthine (HX)+0.05 U/ml of xanthine oxidase (XO) for varying lengths of time, or to H2O2 at different concentrations. To assess possible modulation in cytotoxicity, catalase, 100 U/ml; SOD, 100 μg/ml; DF, 500 μM; and 5 mM of each of the nitroxides from Table 1 were added to parallel cultures. CHD was prepared in a stock solution in ethanol and diluted into medium such that the final concentration was 5 mM. […] TEMPOL is water soluble and was prepared directly in tissue culture medium. […] DF was added either 2 h prior to or during treatment while the other agents were present only during HX/XO or H2O2 treatment. Following treatment, cells were rinsed, trypsinized, counted, and plated for macroscopic colony formation. For each dose determination cells were plated in triplicate and the experiments were repeated a minimum of two times. Plates were incubated 7 days, after which colonies were fixed with methanol/acetic acid, stained with crystal violet, and counted. Colonies containing >50 cells were scored. Error bars represent S.D. of the mean and are shown when larger than the symbol.

[2] = test system: Chinese hamster V79 cells; test: Protection of cells exposed to H2O2 under hypoxic conditions; type: cell-based; conditions: 600 μM H2O2, 1 h, 37° C.
Method: Some studies required exposure to H2O2 under hypoxic conditions. For these studies, cells dispersed in 1.8 ml of medium were plated into specially designed glass flasks (Russo et al, Radiat. Res., 103, 232-239, 1985). The flasks were sealed with soft rubber stoppers, and 19-gauge needles were pushed through to act as entrance and exit ports for a humidified gas mixture of 95% nitrogen/5% CO2 (Matheson Gas Products). […] Stoppered flasks were connected in series and mounted on a reciprocating platform and gassed at 37° C. for 45 min. […] After 45 min of gassing, the hypoxic H2O2 solution was added to the cell monolayer culture. The cells were exposed to H2O2 for 1 h under hypoxic conditions. N2 gas flow was maintained during the H2O2 exposure. In parallel flasks, DF and CHD were added as described above, and were present during the entire gassing procedure. Following treatment, cell survival was assessed as described above.

[3] = Water/octanol partition of nitroxides, ratio determined by EPR; type: physicochemical; conditions: Octanol:water
Excerpt: CHD, 2-spirocyclohexane doxyl(2-spirocyclohexane-5,5-dimethyl-3-oxazolidinoxyl) and OXANO, 2-ethyl-2,5,5-trimethyl-3-oxazolidine-1-oxyl as well as other nitroxides were synthesized as described by Keana et al (J. Am. Chem. Soc., 89, 3055-3056, 1967) For the general synthesis of the cyclic amines, the appropriate starting ketone was reacted with 2-amino-2-methyl-1-propanol in benzene in the presence of catalytic amounts of p-toluene sulfonic acid. As the cyclic structure formed, water was eliminated. The volume of water collected in a Dean Stark apparatus was monitored and used to gauge the reaction progress. The amines thus produced were purified through fractional distillation under reduced pressure, characterized by 220 MHz ^1H NMR, IR, UV, either EI or CI mass spectroscopy, and subsequently oxidized to the corresponding nitroxides using m-chloroperbenzoic acid. The nitroxides were purified by silica flash chromatography (Still et al, J. Org. Chem., 43, 2923-2925, 1978). Water/octanol ratios were determined by placing a quantity of nitroxide in water+octanol within a separatory funnel. The mixture was shaken thoroughly and allowed to separate for 15 min, whereupon aliquots were taken from both fractions and the ratio of nitroxide distribution was determined using electron paramagnetic resonance (EPR) spectroscopy, by comparing the intensities of signal obtained under N2.

[4] = EPR signal of nitroxides exposed to O2 flux formed by HX/XO (spin-loss); type: biochemical; conditions: for Steady state EPR signal (%): % from total R′RNO + R′RNOH after exposure to 5 mM HX + 0.03 U/ml XO in air-saturated PBS pH 7.2; for effect of O2 on the EPR signal: exposure to O2 flux formed by HX/XO
Method: For EPR experiments, samples (0.05-0.1 ml) either of solutions of chemicals or cell suspensions were drawn by a syringe into a gas-permeable teflon capillary of 0.8 mm inner diameter, 0.05 mm wall thickness (Zeus Industrial Products, Inc. Raritan, N.J.). Each capillary was folded twice, inserted into a narrow quartz tube which was open at both ends (2.5 mm ID), and then placed horizontally into the EPR cavity. During the experiments, gases of desired compositions were blown around the sample without having to disturb the alignment of the tube within the EPR cavity. EPR spectra were recorded in a Varian E4 (or E9) X-band spectrometer, with field set at 3357 G, modulation frequency of 100 KHz, modulation amplitude of 1 G and non-saturating microwave power. The EPR spectrometer was interfaced to an IBM-PC through an analog-to-digital converter and a data translation hardware (DT2801) and the spectra were digitized using commercial acquisition software, enabling subtraction of background signals. To study the kinetics of the spin-loss, the spectra were deliberately overmodulated, and the magnetic field was kept constant while the intensity of the EPR signal was followed.

[5] = SOD-inhibitable ferricytochrome c reduction assay, rate constants of reaction with O2 (SOD-like activity); type: biochemical; conditions: low ionic strength (10 mM HEPES), pH 7.0, 22° C.
Excerpt: As a further check, the reaction of representatives of both 5- and 6-membered cyclic nitroxides with O2 was studied. The SOD-inhibitable ferricytochrome c reduction assay (Fridovich, Handbook of Methods for Oxygen Radical Research, 213-215, 1985) was used to determine rate constants of reaction with O2. […] The reaction was started by adding 0.01 U/ml XO and the rate of ferricytochrome c reduction, in the absence (V) and in the presence (v) of various nitroxides, was spectrophotometrically followed at 550 nm. Both reference and sample cuvettes contained all the reagents, with the reference cuvette containing 100 units/ml SOD, thereby eliminating spurious reactions from interfering with the determination of rate constants. Data were analyzed by plotting V/v as a function of [nitroxide] and k1 was calculated, knowing kCytC+superoxide, according to:
(V/v)−1=k1x[nitroxide]/kCytC+superoxidex[Cyt−c^III].

[6] = test system: kidneys of mice; test: Post-irradiation protection after local kidney irradiation, weight gain and kidney histology; type: in vivo; conditions: 28 weeks
Method: This hypothesis has been tested in experiments where both kidneys of mice were locally irradiated with single, acute doses of radiation. […] At 28 weeks after irradiation, the animals were sacrificed, and histological analysis was performed on their kidneys to assess damage.

[7] = test system: Chinese hamster V79 cells; test: Protection of cells exposed to H2O2, clonogenic survival; type: cell-based; conditions: H2O2 for 1 h, 37° C., full medium; 5 mM nitroxide; 100 U/ml catalase; 100 μg/ml SOD; 500 μM DF preincubated 2 h
Method: as §1, with “For each dose determination cells were plated in triplicate and the experiments were repeated a minimum of two times.” left out, “Error bars represent S.D. of the mean and are shown when larger than the symbol.” left out

[8] = test system: C3H mice; test: Nitroxide-induced weight loss, chronic oral administration in drinking water; type: in vivo; conditions: 10 mg per ml in drinking water
Excerpt: Thus, nitroxide given over extended periods appears to cause weight loss in animals.

[9] = test system: C3H mice; test: Protection of mice against whole body radiation, 30 day survival; type: in vivo
Method: Controls were given saline.
Controls were given saline. Survival was recorded 30 days after exposure to radiation. The LD50(30) refers to that dose of radiation at which 50% of the mice survived 30 days after exposure.

[10] = test system: DNA-Fe(II); test: Reaction of nitroxide with DNA-Fe(II), EPR spin-loss and OD353nm; type: biochemical, Salmon; conditions: TEMPOL hypoxically mixed with DNA-Fe(II)
Method: All solutions always contained 0.1 mg/ml Salmon DNA. The appearance of DNA-Fe(III) was spectrophotometrically monitored at 353 nm, whereas the spin-loss of CHD was monitored by following its EPR signal. To study the time-dependence of ΔOD353nm (∘), 1 mM CHD was mixed with 0.1 mM Fe(II). To follow the spin-loss of CHD (□), 1 mM Fe(II) was mixed with 0.1 mM CHD.
It was also questioned whether the aerobic and hypoxic protection by CHD to H2O2 exposure was a result of CHD directly accepting electrons from ferrous ions, thereby preventing generation of .OH. Because cellular iron is chelated, the possible reaction of nitroxide with chelated iron(II) was examined by repeating the experiment in the presence of DNA. To study the possibility of nitroxide-induced oxidation of transition metals, CHD was hypoxically mixed with iron(II) in the presence of 0.1 mg/ml Salmon DNA. Consequently, DNA-Fe(III) was formed and the nitroxide EPR signal disappeared. The reaction kinetics were investigated by maintaining either CHD or Fe(II) in excess while the absorbance due to DNA-Fe(III) and the nitroxide spin-loss were monitored respectively (FIG. 6). Both the decay of the EPR signal and the appearance of the OD353nm obeyed pseudo 1st order kinetics from which the 2nd order reaction rate constant was calculated as 44 M^−1s^−1 or 33 M^−1s^−1 using the data from EPR or optical absorption, respectively.

[11] = test system: Chinese hamster V79 cells; test: In vitro protection against ionizing radiation, clonogenic survival; type: cell-based; conditions: 100 mM TEMPOL 10 min prior to irradiation
[12] = test system: V79 cells; test: Cytotoxicity of the agents alone, clonogenic assay; type: cell-based, Chinese hamster; conditions: concentrations used: catalase 100 U/ml; SOD 100 μg/ml; DF 500 μM; nitroxides 5 mM
Method: For subsequent studies, the most lipophilic nitroxide, CHD, and the most hydrophilic one, TEMPOL, were chosen.
Chinese hamster V79 cells were grown in F12 medium supplemented with 10% fetal calf serum, penicillin, and streptomycin. Survival was assessed in all studies by the clonogenic assay. The plating efficiency range between 80-90%. Stock cultures of exponentially growing cells were trypsinized, rinsed, and plated (5×10^5 cells/dish) into a number of 100 mm petri dishes and incubated 16 h at 37° C. prior to experimental protocols. Cells were exposed for 1 h at 37° C. to either 0.5 mM hypoxanthine (HX)+0.05 U/ml of xanthine oxidase (XO) for varying lengths of time, or to H2O2 at different concentrations. To assess possible modulation in cytotoxicity, catalase, 100 U/ml; SOD, 100 μg/ml; DF, 500 μM; and 5 mM of each of the nitroxides from Table 1 were added to parallel cultures. CHD was prepared in a stock solution in ethanol and diluted into medium such that the final concentration was 5 mM. […] TEMPOL is water soluble and was prepared directly in tissue culture medium. […] Following treatment, cells were rinsed, trypsinized, counted, and plated for macroscopic colony formation. […] Plates were incubated 7 days, after which colonies were fixed with methanol/acetic acid, stained with crystal violet, and counted. Colonies containing >50 cells were scored. […]

[13] = comparison value for native SOD; cited from earlier work

Molecule: CC(=O)N(O)CCCCCNC(=O)CCC(=O)N(O)CCCCCNC(=O)CCC(=O)N(O)CCCCCN [DF, Desferrioxamine, reference compound]
cell survival / protection from HX/XO [1]: complete protection | protection from HX/XO, DF added simultaneously ([1]; DF addition simultaneously with HX/XO (data not shown)): only partial protection | protection against H2O2 cytotoxicity under hypoxic conditions [2]: complete protection

Partition coefficient [3]: 10
Molecule: CCC1(C)OC(C)(C)CN1[O] (centres unmarked) [OXANO, 2-ethyl-2,5,5-trimethyl-3-oxazolidine-1-oxyl]
Steady state EPR signal (%) [4]: 50% | kR′RNO + O2 [5]: 1.1 × 10^3 M − 1^s − 1

Molecule: CC1(C)CCCC(C)(C)N1[O] [TEMPO, 2,2,6,6-tetramethylpiperidine-1-oxyl]
Steady state EPR signal (%) [4]: 100% | effect of O2 on the EPR signal [4]: no effect | kR′RNO + O2 [5]: 1.3 × 10^6 M − 1^s − 1

Molecule: CC1(C)CC(O)CC(C)(C)N1[O] [TEMPOL, 4-hydroxy-2,2,6,6-tetramethylpiperidine-1-oxyl]
cell survival / protection from HX/XO [1]: fully protected | kidney histology, TEMPOL alone ([6]; no radiation): identical to a section from a kidney of a control animal | kidney histology, 24 Gy plus TEMPOL ([6]; single dose 24 Gy, oral TEMPOL two weeks post-irradiation): protection against glomerular sclerosis and tubular cell loss | protection against H2O2 cytotoxicity [7]: fully protected; also recorded: complete protection | toxicity on chronic oral administration ([8]; >3 weeks): no apparent toxicity | reduction of weight compared to controls ([8]; chronic oral administration (>3 weeks)): 12.5% | toxicity in irradiated mice ([9]; 275 mg/kg intraperitoneally): no toxicity | increase of LD50(30) ([9]; 275 mg/kg intraperitoneally 10 min prior to whole body radiation 3 Gy to 13 Gy, versus saline controls): approximately 25% | 2nd order reaction rate constant with DNA-Fe(II) [10]: 40 M⁻¹ s⁻¹ | Steady state EPR signal (%) [4]: 100% | effect of O2 on the EPR signal [4]: no effect | extent of protection against irradiation [11]: approximately 2.5 fold | kR′RNO + O2 [5]: 3.4 × 10^5 M − 1^s − 1 | cytotoxicity of agent alone [12]: Neither catalase, SOD, DF, CHD, nor TEMPOL were cytotoxic alone

Molecule: SOD: superoxide dismutase (SOD), obtained from Sigma
cell survival / protection from HX/XO [1]: not altered | kcat of native SOD [13]: 2.3e+09 M⁻¹ s⁻¹

B1: catalase: catalase (CAT), enzyme that can convert H2O2 to H2O (protein, UniProt P00432 2-527, looked up)
Catalase: ADNRDPASDQMKHWKEQRAAQKPDVLTTGGGNPVGDKLNSLTVGPRGPLLVQDVVFTDEMAHFDRERIPERVVHAKGAGAFGYFEVTHDITRYSKAKVFEHIGKRTPIAVRFSTVAGESGSADTVRDPRGFAVKFYTEDGNWDLVGNNTPIFFIRDALLFPSFIHSQKRNPQTHLKDPDMVWDFWSLRPESLHQVSFLFSDRGIPDGHRHMNGYGSHTFKLVNANGEAVYCKFHYKTDQGIKNLSVEDAARLAHEDPDYGLRDLFNAIATGNYPSWTLYIQVMTFSEAEIFPFNPFDLTKVWPHGDYPLIPVGKLVLNRNPVNYFAEVEQLAFDPSNMPPGIEPSPDKMLQGRLFAYPDTHRHRLGPNYLQIPVNCPYRARVANYQRDGPMCMMDNQGGAPNYYPNSFSAPEHQPSALEHRTHFSGDVQRFNSANDDNVTQVRTFYLKVLNEEQRKRLCENIAGHLKDAQLFIQKKAVKNFSDVHPEYGSRIQALLDKYNEEKPKNAVHTYVQHGSHLSAREKANL
cell survival / protection from HX/XO [1]: complete protection
